From EP0326331B1, “Substituted quinolines and cinnolines” (Dow AgroSciences LLC, priority 1988, dated 1989) come the findings set out here.

Holding throughout (assay type): in vivo
Data set [1] has as its system melon aphids (Aphis gossypii Glover). The data set can be described thus: Mite/insect screen, MA. The note with it: percent mortality, foliar spray on squash; for mortality at 400 ppm / mortality at 200 ppm: Aphis gossypii, foliar, read-out: MA RESULTS %. Put shortly: (§1)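 Compounds dissolved in acetone/alcohol (50:50) with TOXIMUL R and S emulsifiers, diluted in water to test concentrations, and sprayed to runoff on both leaf surfaces at 10 psi, then dried 1 h. For armyworm, excised treated leaves were offered to larvae; percent mortality scored after standard exposure periods.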

Data set [2] deals with Erysiphe graminis tritici (powdery mildew). The data set can be described thus: Test 1 greenhouse foliar spray screen, powdery mildew on wheat. The note with it: Test 1, foliar spray on wheat, disease control rating at 400 ppm / 100 ppm; for pest or weed control at 400 ppm: Blumeria graminis, foliar, read-out: POWD MDEW.
The test system of data set [3] is Pseudoperonospora cubensis (downy mildew). In words: Test 1 greenhouse foliar spray screen, downy mildew on squash. To be noted: Test 1, foliar spray on squash, disease control rating at 400 ppm / 100 ppm; for pest or weed control at 400 ppm: Pseudoperonospora cubensis, foliar, read-out: DOWN MDEW.
In data set [4] the test system is Puccinia recondita tritici (leaf rust). The data set can be described thus: Test 1 greenhouse foliar spray screen, leaf rust on wheat. To be noted: Test 1, foliar spray on wheat, disease control rating at 400 ppm / 100 ppm; for pest or weed control at 400 ppm: Puccinia recondita, foliar.
In data set [5] the test system is Pyricularia oryzae (rice blast). The data set can be described thus: whole plant or invertebrate. The note with it: disease control rating at 400 ppm / 100 ppm; for pest or weed control at 400 ppm: Pyricularia oryzae, foliar, read-out: RICE BLAST, Test 1, foliar spray on rice.
Data set [6] has as its system corn rootworm. The data set can be described thus: Mite/insect screen, CRW. To be noted: percent mortality; for mortality at 24 ppm / mortality at 12 ppm: read-out: CRW RESULTS %. Put shortly:
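Compounds dissolved in 50:50 acetone/alcohol with TOXIMUL R and S emulsifiers (23 and 13 g/L), then diluted in water to the stated test concentrations. Percent mortality of corn rootworm scored after standard exposure periods.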

In data set [7] the test system is southern armyworm (Spodopetra eridania Cramer). The data set can be described thus: Mite/insect screen, SAW. The note with it: percent mortality, foliar spray on squash; for mortality at 400 ppm / mortality at 200 ppm: Spodoptera eridania, foliar, read-out: SAW RESULTS %. Put shortly:
as §1

For data set [8], the system named is Botrytis cinerea (gray mold). In words: Test 1 greenhouse foliar spray screen, gray mold on grape berries. The note with it: Test 1, spray on grape berries, disease control rating at 400 ppm / 100 ppm; for pest or weed control at 400 ppm: Botrytis cinerea, foliar.
The test system of data set [9] is Twospotted spider mites (Tetranychus urticae Koch). In words: Mite/insect screen, SM. To be noted: percent mortality, foliar spray on squash; for mortality at 400 ppm / mortality at 200 ppm: Tetranychus urticae, foliar, read-out: SM RESULTS %. Put shortly: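 Compounds dissolved in 50:50 acetone/alcohol containing sulfonate/nonionic emulsifier blends, then diluted with water to the indicated concentrations. Leaves sprayed on both surfaces to runoff at 10 psi and dried one hour. Percent mortality scored after standard exposure periods.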

`Cc1cc(OCCC2CCCCC2)c2cc(F)ccc2n1` [Example 249, 6-fluoro-4-(2-cyclohexylethoxy)-2-methylquinoline]: the mortality at 400 ppm in data set [1] (rate 400 ppm), in [7] (rate 400 ppm) and in data set [9] (rate 400 ppm) was 0% each time. In addition, the pest or weed control at 400 ppm in data set [2], in [3], in data set [4], in data set [5] and in data set [8] was 0 to 19% each time. The mortality at 24 ppm in [6] (CRW rate 24.00 ppm) was found to be 0%.

In the case of `Cc1ccc(CCOc2cc(OCCc3ccc(C)cc3)c3cccc(F)c3n2)cc1` [Example 250, 8-fluoro-2,4-bis[2-(4-methylphenyl)ethoxy]quinoline], the mortality at 400 ppm in data set [1] (rate 400 ppm), in [7] (rate 400 ppm) and in data set [9] (rate 400 ppm) was 0% each time. In addition, the pest or weed control at 400 ppm in data set [2] was 0 to 19%; in [3], 20 to 89%; in data set [4] it was 20 to 89%; in data set [5] it was 0 to 19%; in [8], 0 to 19%. Besides, the mortality at 24 ppm in data set [6] (CRW rate 24.00 ppm) worked out at 0%.

Take `FC(F)(F)c1ccc2c(CCCc3ccccc3)ccnc2c1` [Example 254, 4-(3-phenylpropyl)-7-(trifluoromethyl)quinoline]: the mortality at 400 ppm in data set [1] (rate 400 ppm), in [7] (rate 400 ppm) and in [9] (rate 400 ppm) was 0% in each case. Moreover, the pest or weed control at 400 ppm in [2] is 90 to 100%; in [3], 0 to 19%; in [4], 0 to 19%; in data set [5] it was 90 to 100%; in [8] it was 0 to 19%. Moreover, in [6] (CRW rate 24.00 ppm), the mortality at 24 ppm amounted to 0%.

Take `Clc1cccc2c(CCCc3ccccc3)ccnc12` [Example 255, 8-chloro-4-(3-phenylpropyl)quinoline]: the mortality at 400 ppm in [1] (rate 400 ppm), in data set [7] (rate 400 ppm) and in data set [9] (rate 400 ppm) was 0% each time. Moreover, the pest or weed control at 400 ppm in [2] was in the range of 20 to 89%; in [3], 20 to 89%; in [4] it was 90 to 100%; in data set [5], 90 to 100%; in data set [8] it was 0 to 19%. For the same compound, in [6] (CRW rate 24.00 ppm), the mortality at 24 ppm amounted to 0%.

In the case of `Fc1cccc2c(CCCc3ccc(-c4ccccc4)cc3)ccnc12` [Example 257, 4-[3-(1,1'-biphenyl)-4-ylpropyl]-8-fluoroquinoline], the mortality at 400 ppm in data set [1] (rate 400 ppm), in [7] (rate 400 ppm) and in data set [9] (rate 400 ppm) was 0% in each case. For the same compound, the pest or weed control at 400 ppm lay in the range of 90 to 100% in data set [2]; 90 to 100% in [3]; 90 to 100% in data set [4]; 20 to 89% in [5]; 0 to 19% in data set [8]. For the same compound, the mortality at 24 ppm in data set [6] (CRW rate 24.00 ppm) amounted to 0%.

`CC(C)(C)c1ccc(CCOc2ccnc3ccccc23)cc1` [Example 262, 4-[2-[4-(t-butyl)phenyl]ethoxy]quinoline]: the mortality at 200 ppm in data set [1] (rate 200 ppm) is 100%; in [7] (rate 200 ppm) it was 0%; in [9] (rate 200 ppm), 100%. The mortality at 400 ppm amounted to 100% in [1] (rate 400 ppm), 0% in [7] (rate 400 ppm) and 100% in data set [9] (rate 400 ppm). The pest or weed control at 400 ppm in [2] lay within 0 to 19%; in data set [3] it was 90 to 100%; in data set [4] it was 90 to 100%; in [5] it was 90 to 100%; in data set [8], 0 to 19%. Further, the mortality at 12 ppm in data set [6] (CRW rate 12.00 ppm) stood at 0%. In addition, the mortality at 24 ppm in data set [6] (CRW rate 24.00 ppm) was 0%.

For the compound `Fc1cccc2c(OCCc3ccc(-c4ccccc4)cc3)ccnc12` [Example 263, 8-fluoro-4-[2-(1,1'-biphenyl)-4-yl-ethoxy]quinoline], the “MA RESULTS %” value in data set [1] (rate 200 ppm) and in data set [1] (rate 400 ppm) was 0% throughout. Further, the “POWD MDEW” value in data set [2] is “+ (20-89% control at 400 ppm)”. In addition, the “DOWN MDEW” value in data set [3] is reported as “- (0-19% control at 400 ppm)”. For the same compound, in data set [4], the “LEAF RUST” value was “+ (20-89% control at 400 ppm)”. For the same compound, the “RICE BLAST” value in data set [5] (Test 1, foliar spray on rice) is given as “+ (20-89% control at 400 ppm)”. The “CRW RESULTS %” value in [6] (CRW rate 12.00 ppm) and in data set [6] (CRW rate 24.00 ppm) was 0% each time. Moreover, the “SAW RESULTS %” value in data set [7] (rate 200 ppm) and in data set [7] (rate 400 ppm) was 0% each time. Besides, in data set [8], the “GRAY MOLD” value is recorded as “- (0-19% control at 400 ppm)”. Further, the “SM RESULTS %” value in data set [9] (rate 200 ppm) and in data set [9] (rate 400 ppm) was 0% throughout.

On to `OCCc1ccc(CCOc2ccnc3c(F)cccc23)cc1` [Example 265, 8-fluoro-4-[2-[4-(2-hydroxyethyl)phenyl]ethoxy]quinoline], for which the mortality at 200 ppm in data set [1] (rate 200 ppm), in data set [7] (rate 200 ppm) and in data set [9] (rate 200 ppm) was 0% throughout. For the same compound, the mortality at 400 ppm in [1] (rate 400 ppm), in [7] (rate 400 ppm) and in data set [9] (rate 400 ppm) was 0% each time. Further, the pest or weed control at 400 ppm in [2] fell in the range of 0 to 19%; in data set [3] it was 0 to 19%; in data set [4], 90 to 100%; in [5] it was 90 to 100%; in data set [8], 0 to 19%. Also, the mortality at 12 ppm in data set [6] (CRW rate 12.00 ppm) stood at 0%. In addition, in data set [6] (CRW rate 24.00 ppm), the mortality at 24 ppm turned out to be 0%.

Consider `COC(C)CCOc1ccnc2c(F)cccc12` (stereo not drawn) [Example 266, 8-fluoro-4-[3-methoxybutoxy]quinoline], for which the mortality at 200 ppm in data set [1] (rate 200 ppm), in [7] (rate 200 ppm) and in [9] (rate 200 ppm) was 0% each time. Moreover, the mortality at 400 ppm in [1] (rate 400 ppm), in [7] (rate 400 ppm) and in [9] (rate 400 ppm) was 0% each time. The pest or weed control at 400 ppm in data set [2], in data set [3], in data set [4], in data set [5] and in data set [8] was 0 to 19% throughout. The mortality at 12 ppm in data set [6] (CRW rate 12.00 ppm) came out at 0%. The mortality at 24 ppm in [6] (CRW rate 24.00 ppm) was 0%.

`C=CCCCOc1ccnc2c(F)cccc12` [Example 267, 8-fluoro-4-(4-pentenoxy)quinoline]: the mortality at 200 ppm stood at 20% in data set [1] (rate 200 ppm), 0% in [7] (rate 200 ppm) and 40% in data set [9] (rate 200 ppm). Moreover, the mortality at 400 ppm was determined as 100% in data set [1] (rate 400 ppm), 0% in [7] (rate 400 ppm) and 100% in [9] (rate 400 ppm). Further, the pest or weed control at 400 ppm lay in the range of 90 to 100% in data set [2]; 20 to 89% in [3]; 90 to 100% in [4]; 90 to 100% in [5]; 0 to 19% in data set [8]. Further, the mortality at 12 ppm in data set [6] (CRW rate 12.00 ppm) is 0%. Further, the mortality at 24 ppm in [6] (CRW rate 24.00 ppm) is 0%.

With `Fc1cccc2c(NCCCCc3ccccc3)ccnc12` [Example 268, 8-fluoro-N-(4-phenylbutyl)-4-quinolinamine], the mortality at 200 ppm in [1] (rate 200 ppm), in data set [7] (rate 200 ppm) and in [9] (rate 200 ppm) was 0% in each case. In addition, the mortality at 400 ppm worked out at 0% in [1] (rate 400 ppm), 0% in data set [7] (rate 400 ppm) and 80% in [9] (rate 400 ppm). Moreover, the pest or weed control at 400 ppm in data set [2] was in the range of 20 to 89%; in [3] it was 90 to 100%; in [4], 90 to 100%; in [5], 90 to 100%; in [8], 0 to 19%. The mortality at 12 ppm in data set [6] (CRW rate 12.00 ppm) was 0%. In addition, the mortality at 24 ppm in data set [6] (CRW rate 24.00 ppm) amounted to 0%.
